Patent US10849983B2, “Development of soluble albuminated curcumin for application in cancer therapy” (Sree Chitra Tirunal Institute for Medical Sciences and …, priority 2013, dated 2020)

Assays:
[1] = tested on: lung cancer (A549) cells; assay: A549 lung cancer cells, phase contrast microscopy, cell cycle analysis and apoptosis by flow cytometry; assay type: cell-based, human; details: 48h, Flowjo
Procedure: (§1) To study the effect of the drug conjugate on cancer cells, Lung (A549), Leukemia (K562), & Prostate (PC-3) cell lines were procured from NCCS, Pune. On receipt, the cell lines were sub cultured and sufficient numbers of vials were stored in […]. deep freezer. To study the effect of curcumin on angiogenesis, primary endothelial cells isolated from sheep was used. The effects on primary human fibroblast cells were also studied. Each cell line was maintained in their respective recommended media. A549, PC3 and fibroblast cells were maintained in DMEM media with 10% FBS. K562 cells were maintained in IMDM media supplemented with 10% FBS and endothelial cells in MCDB media with 10% FBS, L-ascorbic acid, VEGF and L-Glutamine.
(§2) The effect of curcumin was analyzed on cell apoptosis and cycle arrest. Different concentrations of the alb-cur conjugate were added into the cultures. The concentrations employed were 250 μM, 500 μM, and 1000 μM which were achieved by adding stock prepared by dissolving lyophilized curcumin-albumin conjugate.
(§3) The efficacy of the loaded drug was analyzed using solid tumor cell lines of prostate cancer (PC-3) [FIGS. 4 & 5] lung cancer (A549) [FIGS. 6 & 7B] and suspension cell line of leukemia (K562) [FIGS. 7A & 8]. The toxicity of the conjugated albumin-curcumin complex was assed by Live/Dead assay using Annexin V in primary fibroblasts. […]

[2] = tested on: prostate cancer (PC-3) cells; assay: PC-3 cells, phase contrast microscopy and Live/Dead (Annexin V) assay; assay type: cell-based, human; details: 24h, phase contrast microscopy, curcumin in DMSO
Procedure: as §1, §2, §3

| Structure (SMILES) | cell cycle distribution of A549 cells (positive control) [1] | morphology of PC-3 cells [2] |
| --- | --- | --- |
| O=c1[nH]cc(F)c(=O)[nH]1 [Example 5-FU] | slight increase in the population of cells in the S phase | – |
| COc1cc(/C=C/C(=O)CC(=O)/C=C/c2ccc(O)c(OC)c2)ccc1O [cur/DMSO, curcumin] | – | normal morphological features |
